Measurements from US20120108636A1, “Allosteric Enhancers of th A1 Adenosine Receptor” (King Pharmaceuticals Research and Development, Inc., priority 2008, published 2012).

melting point | Compound
135 to 141 °C | Nc1sc(-c2ccccc2)c(CN(C2CCCC2)C2CCCC2)c1C(=O)c1ccc(Cl)cc1 [Example 16-4, {2-Amino-4-[(dicyclopentylamino)methyl]-5-phenylthiophen-3-yl}(4-chlorophenyl)methanone]
127 to 133 °C | CC(C)CN(Cc1c(-c2ccccc2)sc(N)c1C(=O)c1ccc(Cl)cc1)CC(C)C [Example 16-2, {2-Amino-4-[(diisobutylamino)methyl]-5-phenylthiophen-3-yl}(4-chlorophenyl)methanone]
162 to 165 °C | CCCN(Cc1c(-c2ccccc2)sc(N)c1C(=O)c1ccc(Cl)cc1)C1CCCCC1 [Example 16-5, {2-Amino-4-[(cyclohexyl(propyl)amino)methyl]-5-phenylthiophen-3-yl}(4-chlorophenyl)methanone]
131.5 to 136 °C | COc1ccc(N(C)Cc2c(-c3ccccc3)sc(N)c2C(=O)c2ccc(Cl)cc2)cc1 [Example 16-12, {2-Amino-4-[((4-methoxyphenyl)(methyl)amino)methyl]-5-phenylthiophen-3-yl}(4-chlorophenyl)methanone]
140 to 145 °C | COCCN(CCOC)Cc1c(-c2ccccc2)sc(N)c1C(=O)c1ccc(Cl)cc1 [Example 16-8, {2-Amino-4-[(bis(2-methoxyethyl)amino)methyl]-5-phenylthiophen-3-yl}(4-chlorophenyl)methanone]
222 to 225 °C | Nc1sc(-c2ccc(Cl)c(Cl)c2)c(CN(C2CCCCC2)C2CCCCC2)c1C(=O)c1ccc(Cl)cc1 [Example 16-14, {2-Amino-5-(3,4-dichlorophenyl)-4-[(dicyclohexylamino)methyl]thiophen-3-yl}(4-chlorophenyl)methanone]
173 to 176 °C | Cc1ccc(N(C)Cc2c(-c3ccccc3)sc(N)c2C(=O)c2ccc(Cl)cc2)cc1 [Example 16-13, {2-Amino-4-[((4-methylphenyl)(methyl)amino)methyl]-5-phenylthiophen-3-yl}(4-chlorophenyl)methanone]
135 to 140 °C | Nc1sc(-c2ccccc2)c(CNC23CC4CC(CC(C4)C2)C3)c1C(=O)c1ccc(Cl)cc1 [Example 16-10, {2-Amino-4-[(1-adamantylamino)methyl]-5-phenylthiophen-3-yl}(4-chlorophenyl)methanone]
175 to 177 °C | CC(C)Oc1ccc(-c2sc(N)c(C(=O)c3ccc(Cl)cc3)c2CN(C2CCCCC2)C2CCCCC2)cc1 [Example 16-15, {2-Amino-4-[(dicyclohexylamino)methyl]-5-(4-isopropoxyphenyl)thiophen-3-yl}(4-chlorophenyl)methanone]
80 to 84 °C | CN(Cc1c(-c2ccccc2)sc(N)c1C(=O)c1ccc(Cl)cc1)c1ccc(Cl)c(Cl)c1 [Example 16-11, {2-Amino-4-[((3,4-dichlorophenyl)(methyl)amino)methyl]-5-phenylthiophen-3-yl}(4-chlorophenyl)methanone]
156.5 to 160 °C | COC(=O)CN(C)Cc1c(-c2ccccc2)sc(N)c1C(=O)c1ccc(Cl)cc1 [Example 16-7]
151 to 157 °C | C=CCN(Cc1c(-c2ccccc2)sc(N)c1C(=O)c1ccc(Cl)cc1)C1CCCCC1 [Example 16-6]

Second part, the compound before the results:

Compound | melting point
N#Cc1ccc(-c2sc(N)c(C(=O)c3ccc(Cl)cc3)c2CN(C2CCCCC2)C2CCCCC2)cc1 [Example 10, {2-Amino-5-(4-cyanophenyl)-4-[(dicyclohexylamino)methyl]thiophen-3-yl}(4-chlorophenyl)methanone] | 196 to 200 °C
COCCOc1ccc(-c2sc(N)c(C(=O)c3ccc(Cl)cc3)c2CN(C2CCCCC2)C2CCCCC2)cc1 | 162 to 164 °C
CC(C)(C)c1ccc(-c2sc(N)c(C(=O)c3ccc(Cl)cc3)c2CN(C2CCCCC2)C2CCCCC2)cc1 [Example 11, {2-Amino-5-(4-t-butylphenyl)-4-[(dicyclohexylamino)methyl]thiophen-3-yl}(4-chlorophenyl)methanone] | 180 to 184 °C
Nc1sc(-c2ccccn2)c(CN(C2CCCCC2)C2CCCCC2)c1C(=O)c1ccc(Cl)cc1 [Example 34, {2-am ino-4-[(dicyclohexylamino)methyl]-5-(pyridin-2-yl)thiophen-3-yl}(4-chlorophenyl)methanone] | 192 to 194 °C
Nc1sc(-c2ccc(F)cc2)c(CN(C2CCCCC2)C2CCCCC2)c1C(=O)c1ccc(Cl)cc1 [Example 15, {2-Amino-4-[(dicyclohexylamino)methyl]-5-(4-fluorophenyl)thiophen-3-yl}(4-chlorophenyl)methanone] | 222 to 224 °C
Cc1ccc(-c2sc(N)c(C(=O)c3ccc(Cl)cc3)c2CN(C2CCCCC2)C2CCCCC2)cc1 [Example 18, {2-Amino-4-[(dicyclohexylamino)methyl]-5-(4-methylphenyl)thiophen-3-yl}(4-chlorophenyl)methanone] | 191 to 194 °C
Nc1sc(-c2ccco2)c(CN(C2CCCCC2)C2CCCCC2)c1C(=O)c1ccc(Cl)cc1 [Example 31, {2-Amino-4-[(dicyclohexylamino)methyl]-5-(furan-2-yl)thiophen-3-yl}(4-chlorophenyl)methanone] | 158 to 160 °C
Nc1sc(-c2cc(F)cc(F)c2)c(CN(C2CCCCC2)C2CCCCC2)c1C(=O)c1ccc(Cl)cc1 [Example 17, {2-Amino-4-[(dicyclohexylamino)methyl]-5-(3,5-difluorophenyl)thiophen-3-yl}(4-chlorophenyl)methanone] | 163 to 166 °C
Nc1sc(-c2cccc(F)c2)c(CN(C2CCCCC2)C2CCCCC2)c1C(=O)c1ccc(Cl)cc1 [Example 14, {2-Amino-4-[(dicyclohexylamino)methyl]-5-(3-fluorophenyl)thiophen-3-yl}(4-chlorophenyl)methanone] | 205 to 207 °C
Nc1sc(-c2cccnc2)c(CN(C2CCCCC2)C2CCCCC2)c1C(=O)c1ccc(Cl)cc1 [Example 35, {2-amino-4-[(dicyclohexylamino)methyl]-5-(pyridin-3-yl)thiophen-3-yl}(4-chlorophenyl)methanone] | 168 to 170 °C
Nc1sc(-c2ccc(Cl)s2)c(CN(C2CCCCC2)C2CCCCC2)c1C(=O)c1ccc(Cl)cc1 [Example 32, {5-Amino-5′-chloro-3-[(dicyclohexylamino)methyl]-2,2′-bithiophen-4-yl}(4-chlorophenyl)methanone] | 195 to 197 °C
Nc1sc(-c2ccccc2F)c(CN(C2CCCCC2)C2CCCCC2)c1C(=O)c1ccc(Cl)cc1 [Example 13, {2-Amino-4-[(dicyclohexylamino)methyl]-5-(2-fluorophenyl)thiophen-3-yl}(4-chlorophenyl)methanone] | 223 to 225 °C
Nc1sc(/C=C/CC2CCCCC2)c(CN(C2CCCCC2)C2CCCCC2)c1C(=O)c1ccc(Cl)cc1 [Example 37, (E)-{2-Amino-5-(3-cyclohexylprop-1-enyl)-4-[(dicyclohexylamino)methyl]thiophen-3-yl}(4-chlorophenyl)methanone] | 147 to 150 °C
Nc1sc(-c2ccncc2)c(CN(C2CCCCC2)C2CCCCC2)c1C(=O)c1ccc(Cl)cc1 [Example 36, {2-amino-4-[(dicyclohexylamino)methyl]-5-(pyridin-4-yl)thiophen-3-yl}(4-chlorophenyl)methanone] | 214 to 216 °C
Nc1sc(/C=C/Cc2ccc(Cl)cc2)c(CN(C2CCCCC2)C2CCCCC2)c1C(=O)c1ccc(Cl)cc1 [Example 38, (E)-{2-amino-5[3-(4-chlorophenyl)prop-1-enyl]-4-[(dicyclohexylamino)methyl]thiophen-3-yl}(4-chlorophenyl)methanone] | 143 to 146 °C
Nc1sc(-c2ccc(Cl)cc2)c(CN(C2CCCCC2)C2CCCCC2)c1C(=O)c1ccc(Cl)cc1 [Example 12, {2-Amino-5-(4-chlorophenyl)-4-[(dicyclohexylamino)methyl]thiophen-3-yl}(4-chlorophenyl)methanone] | 200 to 204 °C
Nc1sc(-c2ccoc2)c(CN(C2CCCCC2)C2CCCCC2)c1C(=O)c1ccc(Cl)cc1 [Example 29, {2-Amino-[(dicyclohexylamino)methyl]-5-(furan-3-yl)thiophen-3-yl}(4-chlorophenyl)methanone] | 132 to 135 °C
COc1ccc(-c2sc(N)c(C(=O)c3ccc(Cl)cc3)c2CN(C2CCCCC2)C2CCCCC2)cc1 [Example 19, {2-Amino-4-[(dicyclohexylamino)methyl]-5-(4-methoxyphenyl)thiophen-3-yl}(4-chlorophenyl)methanone] | 178 to 182 °C
